Reference: patent publication US12240844B2 (Voronoi, Inc., priority 2019, dated 2025)

What was measured:
[1] = target: LRRK2 (G2019S) (Homo sapiens, UniProt Q5S007, G2019S); assay: LRRK2 G2019S enzyme inhibition, ADP-Glo kinase assay; assay type: biochemical; design: purchased SignalChem L10-12GG
Procedure, shortened: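 Purified human LRRK2 G2019S (16 ng) with 25 μM ATP and 0.2 μg substrate, 2 h at 25° C in 40 mM Tris-HCl pH 7.4, 20 mM MgCl2, 0.5 mg/ml BSA, 50 μM DTT; compound at 12 final concentrations from 50 μM downward. ADP-Glo luminescence versus solvent control gave IC50 (nM).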

[2] = target: T1, LRRK2, LRRK2 (G2019S), DYRK1, CLK1 and TTK kinases (Homo sapiens, UniProt Q13627); assay: Enzyme IC50 by Kinase HotSpot service (Reaction Biology Corporation), values marked with *; assay type: biochemical; conditions: DYRK1, ATP 10 uM
T1 construct: other: DYRK1; Kinase HotSpot service (Reaction Biology), ATP 10 uM
Procedure, shortened: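 Radiometric-service kinase assays (Reaction Biology HotSpot protocol) run at 10 uM ATP under uniform conditions. Compounds tested as 3-fold dilution series from a top concentration of […] to give IC50.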

[3] = target: T2, DYRK1A (Homo sapiens, UniProt Q13627); assay: scanMAX Kinase panel (DiscoverX), % control; assay type: binding; conditions: <35% = active
T2 construct: purchased DiscoverX
Description: Specifically, for Examples 162, 160, 105, 217, 205, 96, 207, 184, 206, 221, 238, and 237 selected among the example compounds of the present invention, it was decided to measure enzyme (kinase) selectivity by DiscoverX, and the experiment was conducted using a panel for scanMAX™ Kinase analysis. At this time, the concentration of the drug treated with the enzyme was 1 uM in DMSO, the control percentage (% control) was determined in the same way as in Equation 1 below, and the results were shown in Table 6 below. [formula] Here, the positive control refers to a compound showing a control percentage of 0%, and the negative control is DMSO, indicating a control percentage of 100%. Also, in the enzyme selectivity of the present invention, if the control percentage for each enzyme was <35% (i.e., less than 35%), it was determined to have activity against the relevant enzyme.

[4] = tested on: MDA-MB-231 cell line; assay: MDA-MB-231 cancer cell proliferation inhibition (Cell Titer-Glo); assay type: cell-based; conditions: Homo sapiens, MDA-MB-231 triple-negative breast cancer cell line, 72 hours
Procedure, shortened: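 GI50 comes from CellTiter-Glo luminescence, read 10 min after reagent addition at RT, following 72 h compound treatment. Eleven concentrations were used (⅓ steps, highest 10 μM final) on 2000 cells/well. MDA-MB-231 and MDA-MB-468 were grown in DMEM, SHP-77 in RPMI.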

[5] = target: T3, human GST-CLK1 (129-end) (Homo sapiens, UniProt P49759); assay: GST-CLK1 enzyme inhibition, ADP-Glo kinase assay; assay type: biochemical; conditions: ATP 10 uM
T3 construct: purified human GST-CLK1 (129-end, Signalchem) enzyme; GST; purchased Signalchem
Procedure, shortened: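 GST-CLK1 (129-end, 3 ng) reacted with 10 uM ATP and substrate in 40 mM Tris-HCl pH 7.4, 20 mM MgCl2, 0.5 mg/mL BSA, 50 uM DTT, 1 h at 25° C. ADP-Glo luminescence normalised to solvent control; IC50 from triplicate data.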

LRRK2 (G2019S), sequence (Q5S007 970-2527 G2019S limits assumed): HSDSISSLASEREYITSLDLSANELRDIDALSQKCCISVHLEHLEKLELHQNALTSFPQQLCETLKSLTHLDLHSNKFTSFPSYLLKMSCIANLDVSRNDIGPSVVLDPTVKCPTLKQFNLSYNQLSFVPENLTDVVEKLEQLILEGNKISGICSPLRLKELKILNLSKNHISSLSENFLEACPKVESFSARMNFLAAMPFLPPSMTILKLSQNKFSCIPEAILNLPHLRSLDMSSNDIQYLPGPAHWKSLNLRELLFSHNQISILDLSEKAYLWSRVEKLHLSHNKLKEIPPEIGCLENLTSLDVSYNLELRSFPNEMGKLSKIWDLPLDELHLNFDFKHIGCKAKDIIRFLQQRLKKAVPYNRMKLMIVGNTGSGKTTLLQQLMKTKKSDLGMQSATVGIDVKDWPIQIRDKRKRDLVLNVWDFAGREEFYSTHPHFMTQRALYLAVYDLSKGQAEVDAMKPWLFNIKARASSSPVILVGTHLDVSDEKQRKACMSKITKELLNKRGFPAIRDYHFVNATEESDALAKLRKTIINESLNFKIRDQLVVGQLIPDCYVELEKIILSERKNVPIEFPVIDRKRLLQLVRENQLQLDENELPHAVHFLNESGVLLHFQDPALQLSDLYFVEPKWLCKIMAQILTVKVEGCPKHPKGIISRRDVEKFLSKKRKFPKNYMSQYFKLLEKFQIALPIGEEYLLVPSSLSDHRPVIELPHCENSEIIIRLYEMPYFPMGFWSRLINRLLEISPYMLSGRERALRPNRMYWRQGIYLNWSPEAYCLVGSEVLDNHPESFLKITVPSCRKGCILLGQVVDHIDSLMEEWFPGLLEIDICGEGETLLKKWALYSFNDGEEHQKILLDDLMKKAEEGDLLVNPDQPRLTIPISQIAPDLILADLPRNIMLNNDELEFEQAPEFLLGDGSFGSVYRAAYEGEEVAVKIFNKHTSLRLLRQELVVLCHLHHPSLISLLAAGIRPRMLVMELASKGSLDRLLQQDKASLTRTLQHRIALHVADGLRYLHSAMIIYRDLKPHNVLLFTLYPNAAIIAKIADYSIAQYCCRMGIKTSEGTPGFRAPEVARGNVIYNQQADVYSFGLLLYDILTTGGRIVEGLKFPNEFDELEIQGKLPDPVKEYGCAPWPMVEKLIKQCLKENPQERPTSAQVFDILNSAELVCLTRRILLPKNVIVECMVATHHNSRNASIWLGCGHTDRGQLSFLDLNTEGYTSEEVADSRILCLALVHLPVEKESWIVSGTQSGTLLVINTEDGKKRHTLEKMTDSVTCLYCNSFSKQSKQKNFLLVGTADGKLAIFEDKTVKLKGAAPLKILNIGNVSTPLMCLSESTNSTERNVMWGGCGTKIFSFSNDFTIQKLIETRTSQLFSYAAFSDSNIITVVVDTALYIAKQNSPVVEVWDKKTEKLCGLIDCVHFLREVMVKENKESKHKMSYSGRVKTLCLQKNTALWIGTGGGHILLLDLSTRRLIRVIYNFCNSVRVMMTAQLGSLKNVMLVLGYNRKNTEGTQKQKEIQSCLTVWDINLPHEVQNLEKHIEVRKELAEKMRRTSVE
T3 sequence (P49759 129-484 limits assumed): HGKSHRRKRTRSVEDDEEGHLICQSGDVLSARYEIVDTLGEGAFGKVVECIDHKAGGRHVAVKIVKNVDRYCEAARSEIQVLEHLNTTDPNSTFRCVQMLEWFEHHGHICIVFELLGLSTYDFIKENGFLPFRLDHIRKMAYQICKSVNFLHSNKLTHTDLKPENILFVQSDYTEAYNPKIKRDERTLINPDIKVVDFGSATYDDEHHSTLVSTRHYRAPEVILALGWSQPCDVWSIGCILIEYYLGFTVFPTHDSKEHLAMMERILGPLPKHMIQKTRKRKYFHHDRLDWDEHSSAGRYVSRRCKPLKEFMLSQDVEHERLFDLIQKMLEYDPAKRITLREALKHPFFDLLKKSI

Row | IC50 [1] [µM] | IC50 [2] [µM] | remaining binding at 1 µM [3] [%] | GI50 [4] [µM] | IC50 [5] [µM] | SMILES
1 | < 0.1 | < 0.1 | 0.1 | 0.301 to 1 | – | CNc1cc(Nc2ccc(S(=O)(=O)N3CCC(N4CCOCC4)CC3)cc2OC)nc2[nH]cc(C(F)(F)F)c12 [Example 184, N^6-(2-methoxy-4-((4-morpholinopiperidin-1-yl)sulfonyl)phenyl)-N^4-methyl-3-(trifluoromethyl)-1H-pyrrolo[2,3-b]pyridine-4,6-diamine]
2 | 0.101 to 0.3 | < 0.1 | 5.1 | 0.301 to 1 | < 0.1 | O=C(c1ccc(Nc2cc(C3CC3)c3c(C(F)(F)F)c[nH]c3n2)c2c1OCCO2)N1CCC(N2CCOCC2)CC1 [Example 221, (8-((4-cyclopropyl-3-(trifluoromethyl)-1H-pyrrolo[2,3-b]pyridin-6-yl)amino)-2,3-dihydrobenzo [b] [1,4]dioxin-5-yl)(4-morpholinopiperidin-1-yl)methanone]
